Measurements reported in patent US10729749B2, “Neurodegenerative disorders” (priority 2014, dated 2020).
Ends that are not written are not given here.

Experiments:
α7 nicotinic-receptor = α7 nicotinic-receptor (Homo sapiens, UniProt P36544); conditions: cited from earlier work
PC12 cells [1] = assay: Calcium fluorometry (Fluo-8, acetylcholine-induced calcium influx); type: cell-based; set-up: Calcium: scale not given here; conditions: for Calcium: calcium influx value, control based on acetylcholine alone
Description: A final criterion used to determine active peptides is the amount of calcium influx into PC12 cells caused by the peptide. The calcium influx value can be calculated as described in the methods section. The calcium value corresponds to the result from the experiment when applying T30 or Aβ alone or in conjunction with the small peptides. The control value for these experiments is based on the calcium influx induced by acetylcholine alone. Preferably, the peptide, derivative or analogue thereof has a calcium influx value of less than 120, and more preferably a value of 97-120.
PC12 cells are plated in 200 μl of complete growth medium the day before the experiment in 96 well plates. On the day of the experiment, the Fluo-8 solution (Abcam) is prepared (as per provider protocol). Subsequently, 100 μl of growth medium is removed and 100 μl of Fluo-8 solution is added. Treatments with T30 or Aβ in conjunction with NBP-14 or small peptides are added and incubated for 30 minutes in the incubator and 30 minutes room temperature.
After 1 hour, the plate is placed in the fluorescence plate reader (Fluostar). Before reading the fluorescence, acetylcholine (ACh) 100 μM is prepared and placed in the Fluostar injector. For each well, the reading will be formed by a basal fluorescence followed by acetylcholine injection that will induce an increase of calcium via nicotinic receptors. The effects of the peptides are then evaluated.

basal forebrain = assay: VSDI of evoked responses in basal forebrain brain slices; set-up: species or system rat; conditions: T30 2 μM & peptide 4 μM in perfusate; 30V electrical stimulation
Method: Coronal rat brain slices were prepared according to the procedure described in (Badin et al., 2013) but this time containing basal forebrain (+0.70 and −0.26 millimetres (mm) from bregma (Paxinos and Watson, 1998). Optical imaging using voltage-sensitive dyes was then performed as previously described (Badin et al., 2013, Neuropharmacology. 73C:10-18).
VSDI data were recorded in 4×4 mm 2-dimensional images, equivalent to 100×100 pixels—each pixel being 40×40 micrometres (μm), from which critical data were extracted. VSDI data was not gathered throughout the experimental run, but in fact was recorded in discrete periods of time 15 minutes in length. The inter-stimulus interval (ISI) between stimulations was 28 seconds and therefore, every recording epoch consisted of 32 successive stimulations. The data from all 32 stimulations were then averaged into a single file for each experimental condition and analysed using a VSDI data analysis toolbox specially made for MatLab (Bourgeois et al., 2014, PLoS One. 9:e108686). […] In order to quantify VSDI data however, the area under the curve was calculated (summed fluorescence fractional change, FIG. 11-22) between the moment of stimulation (t=0) and 280 ms after that; this method of quantification takes into account all the components of the immediate and longer-latency response. […]

PC12 cells [2] = assay: Value coefficient (AChE release vs PC12 cell viability) and filter selection; type: cell-based; conditions: for Value AChE/Viability: 1.0 to 1.1 = protective, control = 1
Description: AChE release vs PC12 cell viability (for which there is a significant negative correlation); • 2. In silico binding to the allosteric site of the α7 nicotinic-receptor; • 3. Calcium influx into PC12 cells; and • 4. Peptide size.

[3] = Cell viability assay (Cell Counting Kit-8); type: cell-based; conditions: % PC12 cell viability compared to untreated control;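 also: PC12 cells in 96-well plates, WST-8 turned into formazan by cellular dehydrogenases, absorbance read at 450 nm after 2 h with the reagent, signal proportional to living cell number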
Description: (§1) A Cell Counting Kit-8 (CCK-8) was used as an improvement of the SRB technique used before. By utilizing the highly water-soluble tetrazolium salt WST-8, CCK-8 produces a water-soluble formazan dye upon reduction in the presence of an electron carrier. WST-8 is reduced by dehydrogenases in cells to give a yellow colored product (formazan), which is soluble in the tissue culture medium. The amount of the formazan dye generated by the activity of dehydrogenases in cells is directly proportional to the number of living cells. PC12 cells are plated in 200 μl of complete growth medium the day before the experiment in 96 well plates. […] Subsequently, 100 μl of growth medium is removed and 10 μl of CCK-8 (Cell Counting Kit-8) solution is added. The plate is incubated for 2 hours in the incubator and then placed in the absorbance plate reader. The absorbance must be measured at 450 nm.

PC12 cells [4] = assay: Acetylcholinesterase activity assay (AChE release from PC12 cells, Ellman reagent); type: cell-based; conditions: % AChE release compared to untreated control
Method: AChE activity was measured using the Ellman reagent that measures the presence of thiol groups as a result of AChE activity. Cells were plated the day before the experiment as for the cell viability assay. […] The Ellman reagent was prepared as a mixture of the 3 solutions in a ratio 33(A):3(B):4(C). Absorbance measurements were taken at regular intervals (3, 10, 30 and 60 mins) across experiments at 405 nm.

rat brain slices = conditions: inventors' previous work, cited from earlier work
cells = conditions: inventors' previous work; cited from earlier work
PC12 cells [5] = assay: Cell viability assay (Cell Counting Kit-8); type: cell-based; conditions: toxic peptide alone; compared to untreated control;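 also: PC12 cells in 96-well plates, WST-8 turned into formazan by cellular dehydrogenases, absorbance read at 450 nm after 2 h with the reagent, signal proportional to living cell number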
Description: as §1

[6] = T30 5 μM + small peptide 0.5 μM

Chain of α7 nicotinic-receptor (P36544 23-502): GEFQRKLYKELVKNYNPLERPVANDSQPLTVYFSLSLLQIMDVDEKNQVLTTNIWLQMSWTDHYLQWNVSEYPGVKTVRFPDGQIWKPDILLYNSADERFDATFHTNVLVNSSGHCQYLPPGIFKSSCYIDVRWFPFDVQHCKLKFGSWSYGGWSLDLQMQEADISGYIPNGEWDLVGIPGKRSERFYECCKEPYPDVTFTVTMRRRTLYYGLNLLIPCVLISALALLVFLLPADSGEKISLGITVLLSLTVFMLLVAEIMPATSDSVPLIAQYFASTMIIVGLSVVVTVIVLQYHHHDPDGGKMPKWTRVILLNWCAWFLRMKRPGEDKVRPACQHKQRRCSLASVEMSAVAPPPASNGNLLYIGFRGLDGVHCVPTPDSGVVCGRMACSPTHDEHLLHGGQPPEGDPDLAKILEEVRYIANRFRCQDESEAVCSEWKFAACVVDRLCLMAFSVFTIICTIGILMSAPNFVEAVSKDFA

Compound: AEFHRWSSYMVHWK (listed as Homo sapiens) [T14, linear 14 amino acid peptide from the C-terminus of AChE]
- affinity for the α7 nicotinic-receptor (α7 nicotinic-receptor): 0.005 µM

Compound: KAEFHR [NBP-603, KAEFHR]
- Calcium (PC12 cells [1]; T30 + small peptide): 119.86
- dose-dependent effect on calcium potentiation against T30 (PC12 cells [1]; dose-dependent experiments, FIGS. 8 and 9): protect against T30 effects
- reversal of T30-induced changes in evoked responses (basal forebrain): some significant effect in reversing the changes induced by T30
- Value AChE/Viability (PC12 cells [2]; [6]): 1.01
- neuroprotective agent against T30 when all four filters are taken into consideration (PC12 cells [2]; filters: value coefficient, in silico binding, calcium influx, peptide size): neuroprotective agents against T30
- viability [3, 6]: 94.8%
- AChE (PC12 cells [4]; [6]): 96.06%

Compound: COc1ccc2c3c1O[C@H]1C[C@@H](O)C=C[C@@]31CCN(C)C2 [galanthamine]
- affinity for the α7 nicotinic-receptor (α7 nicotinic-receptor): 10 µM

Compound: NBP14: cyclic peptide based on T14 sequence AEFHRWSSYMVHWK, cyclated via the terminal Alanine and Lysine residues (head-to-tail cyclised; listed as Homo sapiens)
- effect on Ca2+ concentrations (rat brain slices; given alone): no significant effects on Ca^2+ concentrations in rat brain slices
- effect on β-amyloid action on Ca2+ concentrations (rat brain slices): blocks the effects of β-amyloid
- reversal of T30-induced changes in evoked responses (basal forebrain): significantly reverse any kind of change induced by T30
- action at the α7 nicotinic-receptor (α7 nicotinic-receptor; inventors' previous work): true antagonist of the α7 nicotinic-receptor
- compensatory AChE release (cells): blocks compensatory AChE release induced by the toxicity of linear T14 and T30
- protection of cells from toxicity (cells): protect cells from linear T14, T30 and β-amyloid toxicity

Compound: KAEFHRWSSYMVHWKNQFDHYSKQDRCSDL [T30, reference compound]
- value coefficient x (PC12 cells [2]; toxic peptide alone, x>1.1 means toxicity): 2.28
- % PC12 cell viability (PC12 cells [5]): 74.309%

Compound: SSYMV [NBP-510]
- Calcium (PC12 cells [1]; Aβ + small peptide): 167.56
- Value AChE/Viability (PC12 cells [2]; Aβ 5 μM + small peptide 0.5 μM): 1.03
- viability ([3]; Aβ 5 μM + small peptide 0.5 μM): 101%
- AChE (PC12 cells [4]; Aβ 5 μM + small peptide 0.5 μM): 104.25%

Compound: WKAEFHRWSSYMVH [NBP-1402]
- Calcium (PC12 cells [1]; Aβ + small peptide): 127.81
- Value AChE/Viability (PC12 cells [2]; Aβ 5 μM + small peptide 0.5 μM): 1.09
- viability ([3]; Aβ 5 μM + small peptide 0.5 μM): 91.6%
- AChE (PC12 cells [4]; Aβ 5 μM + small peptide 0.5 μM): 99.85%

Compound: FHRWSS [NBP-606]
- Calcium (PC12 cells [1]; T30 + small peptide): 131.85
- Value AChE/Viability (PC12 cells [2]; [6]): 1.05
- viability [3, 6]: 103%
- AChE (PC12 cells [4]; [6]): 107.88%

Compound: KAEFH [NBP-503]
- Calcium (PC12 cells [1]; Aβ + small peptide): 195.67
- Value AChE/Viability (PC12 cells [2]; Aβ 5 μM + small peptide 0.5 μM): 1.07
- viability ([3]; Aβ 5 μM + small peptide 0.5 μM): 110%
- AChE (PC12 cells [4]; Aβ 5 μM + small peptide 0.5 μM): 117.63%
